Test results from article PMC11449996 (Clinical Pharmacokinetics, 2024).
In brackets after ≈: the same amount, converted by molar mass. Read-outs that look alike come from different tables or passages of the source.

Legend:
[1] = system: C-reactive protein (C-RP) production; type: in vivo, patients
[2] = cited from earlier work
MRSA = settings: bloodstream infection isolates, 72 US and European medical centers; cited from earlier work
staphylococci = settings: cited from earlier work
[3] = Population pharmacokinetic model of dalbavancin; type: in vivo, patients
hepatic cytochromes = settings: ref 13; cited from earlier work
[4] = system: Staphylococcus epidermidis; settings: bloodstream infection isolates, 72 US and European medical centers; cited from earlier work
[5] = cited from earlier work; remark: listed apart in the source
[6] = median of 1000 non-parametric bootstrap iterations
[7] = population estimate, final PK/PD model

free IC50 on C-RP production ([1]; from total IC50 […] mg/L considering plasma protein binding of 93%): 0.05 mg/L
IC50, bootstrap median [1, 6]: 0.58 mg/L (≈ 0.319 µM)
clearance ([3]; human, plasma, intravenous, 1500 mg): 0.75 mL/min
CL, non-renal clearance of dalbavancin, bootstrap median [3, 6]: 0.028 L/h
Q, bootstrap median [3, 6]: 0.04 L/h
V1, bootstrap median [3, 6]: 5.98 L
V2, bootstrap median [3, 6]: 9.08 L
β_eGFR, bootstrap median [3, 6]: 0.005
V1, volume of distribution of the central compartment [3, 7]: 5.93 L
V2, volume of distribution of the peripheral compartment [3, 7]: 9.55 L
β_eGFR, coefficient of eGFR when dalbavancin CL was scaled to eGFR ([3]; population estimate, final PK/PD model, eGFR by CKD-EPI): 0.0042
SMILES: CN[C@H]1C(=O)N[C@@H]2Cc3ccc(cc3)Oc3cc4cc(c3O[C@@H]3O[C@H](C(=O)O)[C@@H](O)[C@H](O)[C@H]3NC(=O)CCCCCCCCC(C)C)Oc3ccc(cc3Cl)[C@@H](O)[C@@H]3NC(=O)[C@H](NC(=O)[C@@H]4NC(=O)[C@@H](NC2=O)c2cc(cc(O)c2Cl)Oc2cc1ccc2O)c1ccc(O)c(c1)-c1c(O[C@H]2O[C@H](CO)[C@@H](O)[C@H](O)[C@@H]2O)cc(O)cc1[C@@H](C(=O)NCCCN(C)C)NC3=O [dalbavancin, Dalbavancin]
kout, bootstrap median [1, 6]: 0.0038 h^–1
kout, elimination rate of C-RP concentration in plasma ([1]; population estimate, final PK/PD model, 211 C-RP plasma concentrations): 0.0037 h^–1
plasma protein binding ([2]; ref 13): 93–98%
plasma protein binding ([2]; ref 15): 93%
MIC90 (MRSA): 0.03 mg/L (≈ 0.0165 µM)
MIC90, value at which 90% of the wild-type strains are inhibited (staphylococci): 0.0625 mg/L
drug–drug interactions (hepatic cytochromes): no clinically relevant drug–drug interactions
substrate of the hepatic cytochromes (hepatic cytochromes): not a substrate of the hepatic cytochromes
MIC90 [4]: 0.06 mg/L (≈ 0.033 µM)
terminal half-life ([5]; intravenous route): 147 to 258 h
CL, population estimates of previous studies ([5]; ref 5, 25, 26): 0.043 to 0.057 L/h
V, population estimates of previous studies ([5]; ref 5, 25, 26): 15 to 15.9 L
administered dose excreted in urine ([5]; ref 13): up to 42%
